Laboratory results reported in patent US9394266B2, “Solid state forms of cabazitaxel and processes for preparation thereof” (IVAX International GmbH, priority 2012, dated 2016).

Test: Hygroscopicity test: exposure to controlled relative humidity, XRPD and Karl-Fischer water content before and after
Format: physicochemical
Conditions: about room temperature; for conversion to another solid state form of Cabazitaxel (polymorphic stability): normal atmospheric humidity, 60%, 80% and 100% RH, two days exposure; for hygroscopicity: various relative humidity conditions
Description: Hygroscopicity Test Procedure:
About 150 mg of a sample was placed to a cell with controlled relative humidity. The samples were exposed to 60%, 80% and 100% relative humidity for a period of two days. XRPD analysis and water content by coulometric Karl-Fischer titration were carried out before and after the exposure to the defined relative humidity. Coulometric Karl-Fischer Titration: Water was determined by KF Oven method (832 KF Thermoprep connected to 831 KF Coulometer). Water from the sample (50 mg of cabazitaxel) was released by nitrogen stream at 130° C. Extraction time was 10 minutes.

Row | SMILES | conversion to another solid state form of Cabazitaxel (polymorphic stability) | hygroscopicity
1 | CO[C@H]1C(=O)[C@]2(C)[C@@H](OC)C[C@H]3OC[C@@]3(OC(C)=O)[C@H]2[C@H](OC(=O)c2ccccc2)[C@]2(O)C[C@H](OC(=O)[C@H](O)[C@@H](NC(=O)OC(C)(C)C)c3ccccc3)C(C)=C1C2(C)C [Form VII, Cabazitaxel ethyl acetate solvate] | does not convert to any other form of Cabazitaxel | low-hygroscopicity form
2 | CO[C@H]1C(=O)[C@]2(C)[C@@H](OC)C[C@H]3OC[C@@]3(OC(C)=O)[C@H]2[C@H](OC(=O)c2ccccc2)[C@]2(O)C[C@H](OC(=O)[C@H](O)[C@@H](NC(=O)OC(C)(C)C)c3ccccc3)C(C)=C1C2(C)C [Form X, Cabazitaxel methyl isobutyl ketone solvate] | does not convert to any other forms of Cabazitaxel | low-hygroscopicity form
3 | CO[C@H]1C(=O)[C@]2(C)[C@@H](OC)C[C@H]3OC[C@@]3(OC(C)=O)[C@H]2[C@H](OC(=O)c2ccccc2)[C@]2(O)C[C@H](OC(=O)[C@H](O)[C@@H](NC(=O)OC(C)(C)C)c3ccccc3)C(C)=C1C2(C)C [acetone solvate, Cabazitaxel acetone solvate, reference compound] | already transform to the anhydrous form B after two days | –
